Measurements reported in ChEMBL document CHEMBL6083275, “Discovery and evaluation of HW161023 as a potent and orally active AAK1 inhibitor” (Bioorg Med Chem Lett, 2024).

What was measured:
[1] = target: AP2-associated protein kinase 1 (Homo sapiens, UniProt Q2M2I8); assay: Inhibition of AAK1 (unknown origin)
[2] = Tmax in dog at 5 mg/kg, po; assay type: ADME, organism-based, Canis lupus familiaris; settings: in vivo
[3] = AUC (0 to 24 hrs) in rat at 10 mg/kg, po; assay type: ADME, organism-based; settings: in vivo
[4] = Ratio of AUC (0 to 24 hrs) in C57BL/6J mouse brain to plasma; assay type: ADME; settings: read-out: Ratio AUC
[5] = Half-life in dog at 1 mg/kg, iv; assay type: ADME, organism-based, Canis lupus familiaris; settings: in vivo
[6] = target: Voltage-gated inwardly rectifying potassium channel KCNH2 (Homo sapiens, UniProt Q12809); assay: Inhibition of human ERG by patch clamp assay; assay type: toxicity
Sequence of Voltage-gated inwardly rectifying potassium channel KCNH2 (Q12809 whole entry): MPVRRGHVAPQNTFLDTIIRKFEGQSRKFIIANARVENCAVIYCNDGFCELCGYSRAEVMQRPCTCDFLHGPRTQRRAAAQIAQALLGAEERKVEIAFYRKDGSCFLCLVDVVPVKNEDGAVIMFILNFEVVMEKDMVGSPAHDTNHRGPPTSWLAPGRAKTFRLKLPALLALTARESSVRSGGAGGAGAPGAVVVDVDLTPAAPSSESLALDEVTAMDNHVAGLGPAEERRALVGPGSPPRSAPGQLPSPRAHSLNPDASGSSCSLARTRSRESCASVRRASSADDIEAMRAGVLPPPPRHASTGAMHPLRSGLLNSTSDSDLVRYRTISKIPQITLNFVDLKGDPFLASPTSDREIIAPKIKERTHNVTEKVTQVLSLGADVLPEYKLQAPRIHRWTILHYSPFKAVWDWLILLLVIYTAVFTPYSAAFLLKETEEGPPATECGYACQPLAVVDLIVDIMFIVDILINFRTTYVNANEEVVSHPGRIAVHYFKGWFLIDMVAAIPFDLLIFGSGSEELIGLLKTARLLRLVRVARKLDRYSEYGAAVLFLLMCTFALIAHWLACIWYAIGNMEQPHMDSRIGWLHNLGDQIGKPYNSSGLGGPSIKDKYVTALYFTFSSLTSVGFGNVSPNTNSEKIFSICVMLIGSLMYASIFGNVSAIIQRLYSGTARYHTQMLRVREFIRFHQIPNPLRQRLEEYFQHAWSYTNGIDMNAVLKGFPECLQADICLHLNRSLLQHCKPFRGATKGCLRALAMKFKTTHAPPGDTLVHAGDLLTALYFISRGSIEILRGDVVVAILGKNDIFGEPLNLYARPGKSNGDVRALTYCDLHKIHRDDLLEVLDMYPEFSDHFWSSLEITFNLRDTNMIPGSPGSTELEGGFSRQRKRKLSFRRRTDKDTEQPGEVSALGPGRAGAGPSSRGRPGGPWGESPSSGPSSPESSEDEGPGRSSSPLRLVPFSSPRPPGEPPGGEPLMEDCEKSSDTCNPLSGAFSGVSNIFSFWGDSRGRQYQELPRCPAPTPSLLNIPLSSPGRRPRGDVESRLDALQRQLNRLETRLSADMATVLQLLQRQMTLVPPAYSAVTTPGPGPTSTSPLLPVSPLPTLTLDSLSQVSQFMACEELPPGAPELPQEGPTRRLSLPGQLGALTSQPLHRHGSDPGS

[7] = AUC (0 to 24 hrs) in dog at 5 mg/kg, po; assay type: ADME, organism-based, Canis lupus familiaris; settings: in vivo
[8] = Apparent volume of distribution in rat at 1 mg/kg, iv; assay type: ADME, organism-based; settings: in vivo, read-out: Vz
[9] = Protein binding in human plasma assessed as unbound fraction; assay type: ADME, cell-free
[10] = Clearance in C57BL/6J mouse at 1 mg/kg, iv; assay type: ADME, organism-based; settings: in vivo
[11] = Protein binding in mouse plasma assessed as unbound fraction; assay type: ADME, cell-free
[12] = Oral bioavailability in dog at 5 mg/kg; assay type: ADME, organism-based, Canis lupus familiaris; settings: in vivo
[13] = Cmax in C57BL/6J mouse at 10 mg/kg, po; assay type: ADME, organism-based; settings: in vivo
[14] = Metabolic stability in mouse liver microsomes assessed as half-life; assay type: ADME, Microsome
CYP2C9 = CYP2C9 (Homo sapiens, UniProt P11712); assay: Inhibition of CYP2C9 (unknown origin) at 10 uM relative to control; assay type: ADME
Sequence of CYP2C9 (P11712 whole entry): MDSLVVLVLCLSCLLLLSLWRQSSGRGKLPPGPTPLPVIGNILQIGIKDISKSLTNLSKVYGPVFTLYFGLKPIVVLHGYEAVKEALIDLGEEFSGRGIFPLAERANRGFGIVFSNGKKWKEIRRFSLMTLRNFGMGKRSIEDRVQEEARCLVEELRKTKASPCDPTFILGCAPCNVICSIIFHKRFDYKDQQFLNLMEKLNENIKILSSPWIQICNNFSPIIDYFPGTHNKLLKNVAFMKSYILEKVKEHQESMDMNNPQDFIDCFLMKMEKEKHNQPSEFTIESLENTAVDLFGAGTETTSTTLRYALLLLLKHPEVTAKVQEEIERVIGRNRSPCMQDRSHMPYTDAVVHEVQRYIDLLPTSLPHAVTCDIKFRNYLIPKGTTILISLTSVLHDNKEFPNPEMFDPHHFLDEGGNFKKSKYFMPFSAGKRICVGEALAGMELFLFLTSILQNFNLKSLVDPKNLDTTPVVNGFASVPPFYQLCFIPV

[15] = Protein binding in rat plasma assessed as unbound fraction; assay type: ADME, cell-free
[16] = Tmax in C57BL/6J mouse at 10 mg/kg, po; assay type: ADME, organism-based; settings: in vivo
[17] = Metabolic stability in rat liver microsomes assessed as half-life; assay type: ADME, Microsome
[18] = AUC (0 to 24 hrs) in C57BL/6J mouse at 10 mg/kg, po; assay type: ADME, organism-based; settings: in vivo
[19] = Half-life in rat at 1 mg/kg, iv; assay type: ADME, organism-based; settings: in vivo
[20] = Protein binding in dog plasma assessed as unbound fraction; assay type: ADME, cell-free, Canis lupus familiaris
CYP3A4 [21] = target: T1, CYP3A4 (Homo sapiens, UniProt P08684); assay: Inhibition of CYP3A4 (unknown origin) using midazolam as substrate at 10 uM relative to control; assay type: ADME; settings: probe midazolam
T1 sequence (P08684 whole entry): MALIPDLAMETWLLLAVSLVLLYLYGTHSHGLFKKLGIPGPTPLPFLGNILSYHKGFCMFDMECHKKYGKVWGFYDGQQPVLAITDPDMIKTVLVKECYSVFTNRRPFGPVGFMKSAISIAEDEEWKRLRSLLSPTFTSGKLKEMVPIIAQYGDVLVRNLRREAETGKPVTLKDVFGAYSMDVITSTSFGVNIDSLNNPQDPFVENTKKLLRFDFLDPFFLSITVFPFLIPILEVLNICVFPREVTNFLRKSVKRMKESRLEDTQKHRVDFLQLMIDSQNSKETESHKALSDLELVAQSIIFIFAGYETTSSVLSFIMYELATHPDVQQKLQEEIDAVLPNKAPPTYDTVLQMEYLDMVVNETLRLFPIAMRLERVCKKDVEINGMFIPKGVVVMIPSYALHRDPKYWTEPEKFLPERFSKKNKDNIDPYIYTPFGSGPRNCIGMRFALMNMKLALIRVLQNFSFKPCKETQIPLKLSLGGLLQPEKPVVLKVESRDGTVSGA

[22] = AUC (0 to 24 hrs) in C57BL/6J mouse at 1 mg/kg, iv; assay type: ADME, organism-based; settings: in vivo
[23] = Oral bioavailability in C57BL/6J mouse at 10 mg/kg; assay type: ADME, organism-based; settings: in vivo
[24] = Tmax in rat at 10 mg/kg, po; assay type: ADME, organism-based; settings: in vivo
CYP3A4 [25] = target: T1, CYP3A4; assay: Inhibition of CYP3A4 (unknown origin) using testosterone as substrate at 10 uM relative to control; assay type: ADME; settings: probe testosterone
[26] = Half-life in C57BL/6J mouse at 10 mg/kg, po; assay type: ADME, organism-based; settings: in vivo
[27] = Clearance in dog at 1 mg/kg, iv; assay type: ADME, organism-based, Canis lupus familiaris; settings: in vivo
[28] = Metabolic stability in human liver microsomes assessed as half-life; assay type: ADME, Microsome
[29] = Apparent volume of distribution in dog at 1 mg/kg, iv; assay type: ADME, organism-based, Canis lupus familiaris; settings: in vivo, read-out: Vz
[30] = Cytotoxicity against human HepG2 cells; assay type: toxicity, cell-based
[31] = Metabolic stability in dog liver microsomes assessed as half-life; assay type: ADME, Canis lupus familiaris, Microsome
CYP2D6 = CYP2D6 (Homo sapiens, UniProt P10635); assay: Inhibition of CYP2D6 (unknown origin) at 10 uM relative to control; assay type: ADME
Sequence of CYP2D6 (P10635 whole entry): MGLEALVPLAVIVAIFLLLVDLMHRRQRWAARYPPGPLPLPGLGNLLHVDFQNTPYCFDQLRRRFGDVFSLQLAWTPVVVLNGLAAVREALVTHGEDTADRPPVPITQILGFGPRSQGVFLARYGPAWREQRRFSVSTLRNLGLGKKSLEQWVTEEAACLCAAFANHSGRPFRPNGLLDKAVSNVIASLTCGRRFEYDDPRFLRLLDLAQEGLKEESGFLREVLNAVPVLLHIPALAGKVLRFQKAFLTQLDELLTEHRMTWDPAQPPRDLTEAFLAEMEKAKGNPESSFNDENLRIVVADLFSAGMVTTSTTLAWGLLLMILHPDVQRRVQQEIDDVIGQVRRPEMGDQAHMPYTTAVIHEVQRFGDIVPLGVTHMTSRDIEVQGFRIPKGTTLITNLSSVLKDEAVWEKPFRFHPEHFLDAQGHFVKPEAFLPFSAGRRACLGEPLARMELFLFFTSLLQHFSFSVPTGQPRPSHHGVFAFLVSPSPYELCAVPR

[32] = Half-life in C57BL/6J mouse at 1 mg/kg, iv; assay type: ADME, organism-based; settings: in vivo
[33] = Clearance in rat at 1 mg/kg, iv; assay type: ADME, organism-based; settings: in vivo
[34] = Apparent volume of distribution in C57BL/6J mouse at 1 mg/kg, iv; assay type: ADME, organism-based; settings: in vivo, read-out: Vz
[35] = Oral bioavailability in rat at 10 mg/kg; assay type: ADME, organism-based; settings: in vivo

Sequence of AP2-associated protein kinase 1 (Q2M2I8 whole entry): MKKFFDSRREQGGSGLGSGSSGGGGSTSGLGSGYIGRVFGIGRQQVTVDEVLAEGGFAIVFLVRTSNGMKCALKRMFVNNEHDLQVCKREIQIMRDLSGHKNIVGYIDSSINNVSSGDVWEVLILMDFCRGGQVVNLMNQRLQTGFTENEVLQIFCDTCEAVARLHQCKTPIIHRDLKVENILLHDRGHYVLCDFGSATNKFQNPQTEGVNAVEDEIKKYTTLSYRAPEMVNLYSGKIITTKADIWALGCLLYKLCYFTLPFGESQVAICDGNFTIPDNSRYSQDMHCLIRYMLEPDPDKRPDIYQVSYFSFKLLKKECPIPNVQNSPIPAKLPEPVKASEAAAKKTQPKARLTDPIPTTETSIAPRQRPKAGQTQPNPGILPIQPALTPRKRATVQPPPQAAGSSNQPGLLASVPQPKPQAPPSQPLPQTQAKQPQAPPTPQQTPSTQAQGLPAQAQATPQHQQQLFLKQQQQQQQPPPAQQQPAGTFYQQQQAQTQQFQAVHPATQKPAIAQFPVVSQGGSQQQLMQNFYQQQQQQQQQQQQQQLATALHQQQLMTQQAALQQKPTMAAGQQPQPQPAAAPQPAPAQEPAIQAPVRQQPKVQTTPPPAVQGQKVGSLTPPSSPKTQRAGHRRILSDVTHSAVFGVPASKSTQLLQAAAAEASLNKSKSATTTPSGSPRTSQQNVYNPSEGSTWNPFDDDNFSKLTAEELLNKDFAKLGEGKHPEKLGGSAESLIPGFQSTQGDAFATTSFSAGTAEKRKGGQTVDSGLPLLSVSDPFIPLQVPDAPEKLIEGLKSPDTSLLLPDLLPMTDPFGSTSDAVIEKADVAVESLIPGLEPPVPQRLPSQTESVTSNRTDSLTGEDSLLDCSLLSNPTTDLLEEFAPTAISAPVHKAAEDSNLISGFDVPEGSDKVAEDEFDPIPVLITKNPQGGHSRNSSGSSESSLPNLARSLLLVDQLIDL

## CC(C)C[C@](C)(N)COc1ccc(-c2ccnc(C(F)F)c2)n2ccnc12
[1]
  IC50: > 0.02 µM

## Cc1cn2c(OC[C@@](C)(N)CC(C)C)ccc(-c3ccnc(C(F)F)c3)c2n1
[1]
  IC50: > 0.02 µM

## CC(C)C[C@](C)(N)COc1ccc(-c2ccnc(C(F)F)c2)c2nc(C(F)F)cn12
[1]
  IC50: > 0.02 µM

## CC(C)C[C@](C)(N)COc1ccc(-c2ccnc(C(F)F)c2)nc1C(F)F [PILAVAPADIN]
[2]
  Tmax: 2.3 h
[3]
  AUC(0-t): 3790 ng·h/mL
[4]
  Kp: 13.9
[5]
  half-life: 3.2 h
[6]
  IC50: 3.4 µM
[7]
  AUC(0-t): 4740 ng·h/mL
[8]
  Vd: 25 L/kg
[9]
  fraction unbound: 0.0875
[10]
  clearance: 12.2 mL/min/kg
[11]
  fraction unbound: 0.02
[12]
  bioavailability: 116%
[13]
  Cmax: 718 ng/mL
[14]
  half-life: 2.61 h
CYP2C9
  inhibition at 10 µM: < 20%
[15]
  fraction unbound: 0.0894
[16]
  Tmax: 1.17 h
[17]
  half-life: 1.61 h
[18]
  AUC(0-t): 9150 ng·h/mL
[19]
  half-life: 9.9 h
[20]
  fraction unbound: 0.0417
CYP3A4 [21]
  inhibition at 10 µM: < 20%
[22]
  AUC(0-t): 892 ng·h/mL
[23]
  bioavailability: 103%
[24]
  Tmax: 6.7 h
CYP3A4 [25]
  inhibition at 10 µM: < 20%
[26]
  half-life: 19.6 h
[27]
  clearance: 20 mL/min/kg
[28]
  half-life: 2.21 h
[29]
  Vd: 5.3 L/kg
[30]
  IC50: 9.5 µM
[31]
  half-life: 1.11 h
CYP2D6
  inhibition at 10 µM: < 20%
[1]
  IC50: 0.005 µM
[32]
  half-life: 17.3 h
[33]
  clearance: 28.3 mL/min/kg
[34]
  Vd: 18 L/kg
[35]
  bioavailability: 77%

## CC(C)C[C@](C)(N)COc1ccc(-c2ccnc(C(F)F)c2)n2cnnc12
[1]
  IC50: > 0.02 µM

## CC(C)C[C@](C)(N)COc1ccc(-c2ccnc(C(F)F)c2)n2cncc12
[6]
  IC50: 30 µM
[9]
  fraction unbound: 0.23
[10]
  clearance: 45 mL/min/kg
[11]
  fraction unbound: 0.107
[13]
  Cmax: 706 ng/mL
[14]
  half-life: 2.23 h
CYP2C9
  inhibition at 10 µM: < 20%
[15]
  fraction unbound: 0.213
[16]
  Tmax: 1 h
[17]
  half-life: 1.85 h
[18]
  AUC(0-t): 4550 ng·h/mL
[20]
  fraction unbound: 0.195
CYP3A4 [21]
  inhibition at 10 µM: < 20%
[22]
  AUC(0-t): 318 ng·h/mL
[23]
  bioavailability: 143%
CYP3A4 [25]
  inhibition at 10 µM: < 20%
[26]
  half-life: 3.27 h
[28]
  half-life: 2.12 h
[30]
  IC50: 43 µM
[31]
  half-life: 1.72 h
CYP2D6
  inhibition at 10 µM: 81.1%
[32]
  half-life: 2.8 h
[34]
  Vd: 11 L/kg
